Numbers after ± are expanded uncertainties.
Assay: wn = mass fraction of the nth substance listed
Conditions: 400 kPa, Liquid, Concentric cylinders viscometry

## CN(CCO)CCO [N-methyldiethanolamine] + O
298.15 K, w1 = 0.3
  viscosity: 3.02 ± 0.48 mPa·s
298.15 K, w1 = 0.4
  viscosity: 5.21 ± 0.64 mPa·s
298.15 K, w1 = 0.5
  viscosity: 9.13 ± 1.2 mPa·s
298.15 K, w1 = 0.6
  viscosity: 16.91 ± 2.1 mPa·s
298.15 K, w1 = 0.7
  viscosity: 30.09 ± 3.7 mPa·s
298.15 K, w1 = 0.8
  viscosity: 53.42 ± 4.5 mPa·s
298.15 K, w1 = 0.9
  viscosity: 75.12 ± 3.3 mPa·s
298.15 K, w1 = 0.95
  viscosity: 76.07 ± 0.73 mPa·s
298.15 K, w1 = 1
  viscosity: 73.1 ± 0.58 mPa·s
303.15 K, w1 = 0.3
  viscosity: 2.64 ± 0.41 mPa·s
303.15 K, w1 = 0.4
  viscosity: 4.41 ± 0.53 mPa·s
303.15 K, w1 = 0.5
  viscosity: 7.51 ± 0.92 mPa·s
303.15 K, w1 = 0.6
  viscosity: 13.4 ± 1.6 mPa·s
303.15 K, w1 = 0.7
  viscosity: 23.11 ± 2.7 mPa·s
303.15 K, w1 = 0.8
  viscosity: 40.03 ± 3.3 mPa·s
303.15 K, w1 = 0.9
  viscosity: 56.05 ± 2.7 mPa·s
303.15 K, w1 = 0.95
  viscosity: 57.55 ± 0.4 mPa·s
303.15 K, w1 = 1
  viscosity: 55.89 ± 0.39 mPa·s
308.15 K, w1 = 0.3
  viscosity: 2.28 ± 0.35 mPa·s
308.15 K, w1 = 0.4
  viscosity: 3.71 ± 0.44 mPa·s
308.15 K, w1 = 0.5
  viscosity: 6.17 ± 0.73 mPa·s
308.15 K, w1 = 0.6
  viscosity: 10.73 ± 1.2 mPa·s
308.15 K, w1 = 0.7
  viscosity: 18.01 ± 2 mPa·s
308.15 K, w1 = 0.8
  viscosity: 30.42 ± 2.4 mPa·s
308.15 K, w1 = 0.9
  viscosity: 42.37 ± 2.1 mPa·s
308.15 K, w1 = 0.95
  viscosity: 44.18 ± 0.41 mPa·s
308.15 K, w1 = 1
  viscosity: 43.45 ± 0.35 mPa·s
313.15 K, w1 = 0.3
  viscosity: 1.97 ± 0.31 mPa·s
313.15 K, w1 = 0.4
  viscosity: 3.15 ± 0.37 mPa·s
313.15 K, w1 = 0.5
  viscosity: 5.13 ± 0.59 mPa·s
313.15 K, w1 = 0.6
  viscosity: 8.68 ± 0.93 mPa·s
313.15 K, w1 = 0.7
  viscosity: 14.22 ± 1.5 mPa·s
313.15 K, w1 = 0.8
  viscosity: 23.47 ± 1.9 mPa·s
313.15 K, w1 = 0.9
  viscosity: 32.56 ± 1.6 mPa·s
313.15 K, w1 = 0.95
  viscosity: 34.3 ± 0.43 mPa·s
313.15 K, w1 = 1
  viscosity: 34.15 ± 0.3 mPa·s
318.15 K, w1 = 0.3
  viscosity: 1.75 ± 0.28 mPa·s
318.15 K, w1 = 0.4
  viscosity: 2.73 ± 0.33 mPa·s
318.15 K, w1 = 0.5
  viscosity: 4.34 ± 0.49 mPa·s
318.15 K, w1 = 0.6
  viscosity: 7.15 ± 0.74 mPa·s
318.15 K, w1 = 0.7
  viscosity: 11.42 ± 1.1 mPa·s
318.15 K, w1 = 0.8
  viscosity: 18.44 ± 1.4 mPa·s
318.15 K, w1 = 0.9
  viscosity: 25.45 ± 1.3 mPa·s
318.15 K, w1 = 0.95
  viscosity: 27.04 ± 0.43 mPa·s
318.15 K, w1 = 1
  viscosity: 27.15 ± 0.27 mPa·s
323.15 K, w1 = 0.3
  viscosity: 1.54 ± 0.26 mPa·s
323.15 K, w1 = 0.4
  viscosity: 2.36 ± 0.29 mPa·s
323.15 K, w1 = 0.5
  viscosity: 3.68 ± 0.41 mPa·s
323.15 K, w1 = 0.6
  viscosity: 5.92 ± 0.59 mPa·s
323.15 K, w1 = 0.7
  viscosity: 9.26 ± 0.9 mPa·s
323.15 K, w1 = 0.8
  viscosity: 14.67 ± 1.1 mPa·s
323.15 K, w1 = 0.9
  viscosity: 20.13 ± 1 mPa·s
323.15 K, w1 = 0.95
  viscosity: 21.55 ± 0.42 mPa·s
323.15 K, w1 = 1
  viscosity: 21.82 ± 0.24 mPa·s
328.15 K, w1 = 0.3
  viscosity: 1.38 ± 0.24 mPa·s
328.15 K, w1 = 0.4
  viscosity: 2.07 ± 0.27 mPa·s
328.15 K, w1 = 0.5
  viscosity: 3.18 ± 0.35 mPa·s
328.15 K, w1 = 0.6
  viscosity: 4.99 ± 0.49 mPa·s
328.15 K, w1 = 0.7
  viscosity: 7.64 ± 0.71 mPa·s
328.15 K, w1 = 0.8
  viscosity: 11.84 ± 0.88 mPa·s
328.15 K, w1 = 0.9
  viscosity: 16.18 ± 0.82 mPa·s
328.15 K, w1 = 0.95
  viscosity: 17.38 ± 0.39 mPa·s
328.15 K, w1 = 1
  viscosity: 17.79 ± 0.23 mPa·s
333.15 K, w1 = 0.3
  viscosity: 1.24 ± 0.23 mPa·s
333.15 K, w1 = 0.4
  viscosity: 1.83 ± 0.25 mPa·s
333.15 K, w1 = 0.5
  viscosity: 2.76 ± 0.31 mPa·s
333.15 K, w1 = 0.6
  viscosity: 4.23 ± 0.41 mPa·s
333.15 K, w1 = 0.7
  viscosity: 6.36 ± 0.58 mPa·s
333.15 K, w1 = 0.8
  viscosity: 9.67 ± 0.71 mPa·s
333.15 K, w1 = 0.9
  viscosity: 13.16 ± 0.67 mPa·s
333.15 K, w1 = 0.95
  viscosity: 14.14 ± 0.37 mPa·s
333.15 K, w1 = 1
  viscosity: 14.63 ± 0.22 mPa·s
338.15 K, w1 = 0.3
  viscosity: 1.15 ± 0.22 mPa·s
338.15 K, w1 = 0.4
  viscosity: 1.65 ± 0.24 mPa·s
338.15 K, w1 = 0.5
  viscosity: 2.43 ± 0.28 mPa·s
338.15 K, w1 = 0.6
  viscosity: 3.66 ± 0.36 mPa·s
338.15 K, w1 = 0.7
  viscosity: 5.38 ± 0.48 mPa·s
338.15 K, w1 = 0.8
  viscosity: 8.02 ± 0.58 mPa·s
338.15 K, w1 = 0.9
  viscosity: 10.81 ± 0.55 mPa·s
338.15 K, w1 = 0.95
  viscosity: 11.64 ± 0.35 mPa·s
338.15 K, w1 = 1
  viscosity: 12.2 ± 0.21 mPa·s
343.15 K, w1 = 0.3
  viscosity: 1.06 ± 0.22 mPa·s
343.15 K, w1 = 0.4
  viscosity: 1.49 ± 0.23 mPa·s
343.15 K, w1 = 0.5
  viscosity: 2.16 ± 0.26 mPa·s
343.15 K, w1 = 0.6
  viscosity: 3.18 ± 0.32 mPa·s
343.15 K, w1 = 0.7
  viscosity: 4.59 ± 0.41 mPa·s
343.15 K, w1 = 0.8
  viscosity: 6.71 ± 0.48 mPa·s
343.15 K, w1 = 0.9
  viscosity: 8.98 ± 0.46 mPa·s
343.15 K, w1 = 0.95
  viscosity: 9.66 ± 0.32 mPa·s
343.15 K, w1 = 1
  viscosity: 10.21 ± 0.21 mPa·s
348.15 K, w1 = 0.3
  viscosity: 0.97 ± 0.21 mPa·s
348.15 K, w1 = 0.4
  viscosity: 1.35 ± 0.22 mPa·s
348.15 K, w1 = 0.5
  viscosity: 1.92 ± 0.25 mPa·s
348.15 K, w1 = 0.6
  viscosity: 2.77 ± 0.28 mPa·s
348.15 K, w1 = 0.7
  viscosity: 3.94 ± 0.35 mPa·s
348.15 K, w1 = 0.8
  viscosity: 5.66 ± 0.41 mPa·s
348.15 K, w1 = 0.9
  viscosity: 7.52 ± 0.4 mPa·s
348.15 K, w1 = 0.95
  viscosity: 8.09 ± 0.3 mPa·s
348.15 K, w1 = 1
  viscosity: 8.6 ± 0.21 mPa·s
353.15 K, w1 = 0.3
  viscosity: 0.89 ± 0.21 mPa·s
353.15 K, w1 = 0.4
  viscosity: 1.22 ± 0.22 mPa·s
353.15 K, w1 = 0.5
  viscosity: 1.72 ± 0.23 mPa·s
353.15 K, w1 = 0.6
  viscosity: 2.43 ± 0.26 mPa·s
353.15 K, w1 = 0.7
  viscosity: 3.41 ± 0.31 mPa·s
353.15 K, w1 = 0.8
  viscosity: 4.81 ± 0.36 mPa·s
353.15 K, w1 = 0.9
  viscosity: 6.35 ± 0.35 mPa·s
353.15 K, w1 = 0.95
  viscosity: 6.82 ± 0.28 mPa·s
353.15 K, w1 = 1
  viscosity: 7.31 ± 0.21 mPa·s
358.15 K, w1 = 0.3
  viscosity: 0.84 ± 0.21 mPa·s
358.15 K, w1 = 0.4
  viscosity: 1.13 ± 0.21 mPa·s
358.15 K, w1 = 0.5
  viscosity: 1.58 ± 0.23 mPa·s
358.15 K, w1 = 0.6
  viscosity: 2.18 ± 0.25 mPa·s
358.15 K, w1 = 0.7
  viscosity: 3 ± 0.28 mPa·s
358.15 K, w1 = 0.8
  viscosity: 4.16 ± 0.32 mPa·s
358.15 K, w1 = 0.9
  viscosity: 5.44 ± 0.31 mPa·s
358.15 K, w1 = 0.95
  viscosity: 5.83 ± 0.26 mPa·s
358.15 K, w1 = 1
  viscosity: 6.29 ± 0.2 mPa·s
363.15 K, w1 = 0.3
  viscosity: 0.81 ± 0.21 mPa·s
363.15 K, w1 = 0.4
  viscosity: 1.05 ± 0.21 mPa·s
363.15 K, w1 = 0.5
  viscosity: 1.45 ± 0.22 mPa·s
363.15 K, w1 = 0.6
  viscosity: 1.97 ± 0.23 mPa·s
363.15 K, w1 = 0.7
  viscosity: 2.65 ± 0.26 mPa·s
363.15 K, w1 = 0.8
  viscosity: 3.63 ± 0.29 mPa·s
363.15 K, w1 = 0.9
  viscosity: 4.69 ± 0.28 mPa·s
363.15 K, w1 = 0.95
  viscosity: 5.01 ± 0.25 mPa·s
363.15 K, w1 = 1
  viscosity: 5.43 ± 0.2 mPa·s
368.15 K, w1 = 0.3
  viscosity: 0.79 ± 0.2 mPa·s
368.15 K, w1 = 0.4
  viscosity: 0.97 ± 0.21 mPa·s
368.15 K, w1 = 0.5
  viscosity: 1.33 ± 0.22 mPa·s
368.15 K, w1 = 0.6
  viscosity: 1.77 ± 0.23 mPa·s
368.15 K, w1 = 0.7
  viscosity: 2.37 ± 0.25 mPa·s
368.15 K, w1 = 0.8
  viscosity: 3.18 ± 0.26 mPa·s
368.15 K, w1 = 0.9
  viscosity: 4.09 ± 0.26 mPa·s
368.15 K, w1 = 0.95
  viscosity: 4.33 ± 0.24 mPa·s
368.15 K, w1 = 1
  viscosity: 4.72 ± 0.2 mPa·s
373.15 K, w1 = 0.3
  viscosity: 0.76 ± 0.2 mPa·s
373.15 K, w1 = 0.4
  viscosity: 0.91 ± 0.21 mPa·s
373.15 K, w1 = 0.5
  viscosity: 1.23 ± 0.21 mPa·s
373.15 K, w1 = 0.6
  viscosity: 1.61 ± 0.22 mPa·s
373.15 K, w1 = 0.7
  viscosity: 2.12 ± 0.23 mPa·s
373.15 K, w1 = 0.8
  viscosity: 2.82 ± 0.25 mPa·s
373.15 K, w1 = 0.9
  viscosity: 3.58 ± 0.24 mPa·s
373.15 K, w1 = 0.95
  viscosity: 3.77 ± 0.23 mPa·s
373.15 K, w1 = 1
  viscosity: 4.12 ± 0.2 mPa·s

Reference: the NIST ThermoML archive (doi:10.1021/acs.jced.9b00021)
